The source of these data is paper PMC6805555, “Characterization of resistance to a potent D-peptide HIV entry inhibitor” (Retrovirology, 2019).

Assay [1] deals with IZN36 Q577R (gp41 N-peptide mimic). The format is binding, HIV-1 (HXB2 strain). Conditions: Q577R vs. WT IZN36.
Method: A Q577R mutant version was generated via site-directed mutagenesis using the QuikChange® protocol (Stratagene). […] The cysteine residues of these constructs were biotinylated for SPR.
Protein interaction analysis was carried out on a Biacore 3000 (GE Healthcare). Analyses were performed in triplicate at 25 °C in sterile-filtered and degassed Gibco® PBS pH 7.4 (Invitrogen) supplemented with 0.005% P20 and 1 mg/mL BSA at a flow rate of 50 μL/min. First, streptavidin (Pierce) was immobilized on CM5 chips (GE Healthcare) using the Amine Coupling Kit (GE Healthcare) following a standard coupling protocol [36]. […] Injections were performed for 1 min using KINJECT. Dissociation was monitored for 2 min, followed by a 20 μL injection (QUICKINJECT) of running buffer followed by EXTRACLEAN. Sensorgrams were processed using Scrubber2 (BioLogic Software), and data were analyzed with Prism 5.0 (GraphPad Software). The equilibrium binding data were fit using the built-in saturation binding model (one site—specific binding), normalized to Bmax, and replotted as concentration of analyte vs. % capacity.
The subject of assay [2] is enfuvirtide resistance mutations in HIV-1. Conditions: next-generation L-peptide fusion inhibitors; cited from earlier work. From the text: The remarkable conservation of this gp41 hydrophobic pocket target is indicative of its critical roles in the viral life cycle and impedes the ability of the virus to combat inhibitors that target it. The region of the HIV-1 genome encoding the pocket is conserved at both the protein level (for the role of gp41 in membrane fusion during viral entry) and nucleotide level (due to a structured RNA region in the critical Rev-response element). The only FDA-approved HIV fusion inhibitor, enfuvirtide (Fuzeon), is an L-peptide derived from the gp41 C-peptide region that targets the gp41 N-trime ...

The subject of assay [3] is HIV-1 HXB2 Env Q577R pseudotyped HIV-1. The format is cell-based. Conditions: for C-peptide inhibition of Q577R compared to WT pseudoviruses: in words. From the text: (§1) Supplementary file 12977_2019_489_MOESM3_ESM.pdf: Additional file 3. Effect of Q577R on C-peptide Inhibitors. Single-cycle viral infectivity assays in which HIV-1 HXB2 Env (WT and Q577R) pseudotyped HIV-1 with a luciferase reporter was used to infect HOS-LES cells in the absence or presence of six fivefold dilutions of the indicated C-peptide (in quadruplicate). The data are the average of two experiments with the standard deviation in parentheses.

In another assay the test system is HIV-1. Conditions: in vitro and in vivo; cited from earlier work. From the text:
The remarkable conservation of this gp41 hydrophobic pocket target is indicative of its critical roles in the viral life cycle and impedes the ability of the virus to combat inhibitors that target it. The region of the HIV-1 genome encoding the pocket is conserved at both the protein level (for the role of gp41 in membrane fusion during viral entry) and nucleotide level (due to a structured RNA region in the critical Rev-response element). The only FDA-approved HIV fusion inhibitor, enfuvirtide (Fuzeon), is an L-peptide derived from the gp41 C-peptide region that targets the gp41 N-trime ... || Q577R has also been identified in viral resistance screens against other HIV-1 entry inhibitors that target the prehairpin intermediate. Against N-trimer peptides N44, N36, and IZN36, the C-peptide T2635, and the retrocyclin RC-101, Q577R is found in some or all of the resistant viruses and always accompanied by other gp41 mutation(s). By itself, Q577R provided only modest resistance to the N-trimer and C-peptide inhibitors (< threefold). Viral escape from a recently identified adnectin, 6200_A08, which similarly targets the gp41 hydrophobic pocket, ...

The subject of assay [4] is Q577R in patient pre-treatment env. Conditions: patient's pre-treatment env; cited from earlier work. From the text: (§2) Q577R has also been identified in viral resistance screens against other HIV-1 entry inhibitors that target the prehairpin intermediate. Against N-trimer peptides N44, N36, and IZN36, the C-peptide T2635, and the retrocyclin RC-101, Q577R is found in some or all of the resistant viruses and always accompanied by other gp41 mutation(s). By itself, Q577R provided only modest resistance to the N-trimer and C-peptide inhibitors (< threefold). Viral escape from a recently identified adnectin, 6200_A08, which similarly targets the gp41 hydrophobic pocket, ...

In a further assay the test system is Q577R HIV-1. Conditions: other studied HIV-1 strains; cited from earlier work.
Excerpt: as §2

Assay [5] concerns HIV-1 HXB2 Env WT pseudotyped HIV-1. The format is cell-based. Conditions: HXB2 Env WT pseudotyped HIV-1, luciferase reporter, HOS-LES cells, six fivefold dilutions in quadruplicate; average of two experiments (SD).
Excerpt: as §1

In the next assay the test system is HIV-1 strain NL4-3. Conditions: similar passaging studies; cited from earlier work. From the text:
This extremely high affinity for the transiently exposed gp41 trimer provides a reserve of binding energy (resistance capacitor) to prevent the viral resistance pathway of stepwise accumulation of modest affinity-disrupting mutations. Such modest mutations would not affect PIE12-trimer potency and therefore not confer a selective advantage. Viral pa ... || We previously reported the selection of HIV-1 populations resistant to PIE12-trimer by passaging the lab-adapted NL4-3 strain in the presence of escalating suboptimal (partially inhibiting) concentrations of inhibitor, starting with 1 nM. Ultimately, PIE12-trimer resistant virus propagating in 320 nM PIE12-trimer was obtained after 65 weeks of passaging. Duplicate selections yielded two highly resistant polyclonal viral pools (W1 and W2). As previously reported, similar passaging studies with enfuvirtide led to high-level resistance (> 1000-fold) within ~ 3 weeks. […] We therefore investigated the growth kinetics of the NL4-3-based replication competent Q577 point mutants and the polyclonal viral pools (W1 and W2) and compared them to that of the native virus (clonal NL4-3, WT).

Some results are limits rather than exact numbers.

As to `CC(=O)N[C@H](Cc1c[nH]cn1)C(=O)N1CCC[C@@H]1C(=O)N[C@@H]1CSSC[C@H](C(=O)N[C@H](CCC(=O)O)C(=O)N[C@H](CC(C)C)C(=O)NCC(=O)N[C@H](CCCCN)C(N)=O)NC(=O)[C@@H](CC(C)C)NC(=O)[C@@H](Cc2c[nH]c3ccccc23)NC(=O)[C@@H](CCC(N)=O)NC(=O)[C@@H](Cc2c[nH]c3ccccc23)NC(=O)[C@@H](CCC(=O)O)NC(=O)[C@H]2CCCN2C(=O)[C@@H](Cc2ccc(O)cc2)NC(=O)[C@@H](CC(=O)O)NC1=O` [PIE12], in assay [1], the “weakening of the interaction” value is reported as ~ 65 fold and the “weakening of the interaction (binding energy)” value is 2.5 kcal/mol.
On to `CC[C@H](C)[C@H](NC(=O)[C@H](CCC(N)=O)NC(=O)[C@H](C)NC(=O)[C@H](CCC(N)=O)NC(=O)[C@H](CCC(=O)O)NC(=O)[C@H](CC(C)C)NC(=O)[C@H](CC(C)C)NC(=O)[C@H](C)NC(=O)[C@@H](NC(=O)[C@@H](NC(=O)[C@H](CCCCN)NC(=O)[C@H](CCC(N)=O)NC(=O)[C@H](CCC(=O)O)NC(=O)[C@H](Cc1c[nH]c2ccccc12)NC(=O)[C@H](CCC(=O)O)NC(=O)[C@H](CCC(N)=O)NC(=O)[C@H](Cc1c[nH]c2ccccc12)NC(C)=O)[C@@H](C)CC)[C@@H](C)O)C(=O)N[C@@H](CCC(N)=O)C(=O)N[C@@H](CCC(N)=O)C(=O)N[C@@H](CCC(=O)O)C(=O)N[C@@H](CCCCN)C(=O)N[C@@H](CC(N)=O)C(=O)N[C@@H](CCC(=O)O)C(=O)N[C@@H](Cc1ccc(O)cc1)C(=O)N[C@@H](CCC(=O)O)C(=O)N[C@@H](CC(C)C)C(=O)N[C@@H](CCC(N)=O)C(=O)N[C@@H](CCCCN)C(=O)N[C@@H](CC(C)C)C(=O)N[C@@H](CC(=O)O)C(=O)N[C@@H](CCCCN)C(=O)N[C@@H](Cc1c[nH]c2ccccc12)C(=O)N[C@@H](C)C(=O)N[C@@H](CO)C(=O)N[C@@H](CC(C)C)C(=O)N[C@@H](Cc1c[nH]c2ccccc12)C(=O)N[C@@H](CCC(=O)O)C(=O)N[C@@H](Cc1c[nH]c2ccccc12)C(=O)N[C@@H](Cc1ccccc1)C(N)=O` [T1249], for which the “impact of enfuvirtide resistance mutations” value in assay [2] is recorded as “much less impacted by enfuvirtide resistance mutations”. Also, the “Fold Difference” value in assay [3] (IC50 Q577R vs. WT) is 1.2. Further, the “C-peptide inhibition of Q577R compared to WT pseudoviruses” value in assay [3] was “only modest differences”.
Take enfuvirtide: the “emergence of gp41 resistance mutations” value in the assay with HIV-1 is “rapid emergence of gp41 resistance mutations”. The “resistance provided by Q577R” value in assay [4] was 25 fold. Besides, the “effect of Q577R on sensitivity” value with Q577R HIV-1 is “minimally affected by Q577R”. Further, the IC50 – broadly, the concentration that inhibits the measured activity by half – in assay [5] amounted to 1.62 nM. This molecule also yielded an IC50 in assay [3] (HXB2 Env Q577R pseudotyped HIV-1, luciferase reporter, HOS-LES cells, six fivefold dilutions in quadruplicate, average of two experiments (SD)) of 5.33 nM. The “C-peptide inhibition of Q577R compared to WT pseudoviruses” value in assay [3] was “only modest differences”. In the assay on HIV-1 strain NL4-3, the “level of resistance on passaging” value is given as over 1000 fold and the “time to high-level resistance” value was ~ 3 weeks.
